Test results: patent US12377112B2, “Methods of treating neurocognitive disorders, chronic pain and reducing inflammation” (priority 2019, dated 2025)

System: healthy subjects
Experiment: Phase 1 study: Social Cognition Panel (PET, RMET, SSR, SVO, TEQ)
Assay type: in vivo, human
Source text: In some embodiments, Social Cognition Panel scales are utilized to evaluate the safety and/or efficacy of psilocybin. The social cognition panel scales comprise the pictorial empathy test (PET), reading the mind in the eyes test (RMET), social value orientation (SVO) test, the Toronto Empathy Questionnaire (TEQ), and the scale of social responsibility (SSR).
In some embodiments, the Pictorial Empathy Test (PET) is utilized to evaluate the effect of psilocybin on affective empathy.
In some embodiments, Reading the Mind in the Eyes Test (RMET) is utilized to evaluate the safety and/or efficacy of psilocybin. The RMET has 36 items, in which subjects are presented with a photograph of the eyes region of the face and must choose 1 of 4 adjectives or phrases to describe the mental state of the person pictured. A definition handout is provided at the beginning of the task and a practice item precedes the first trial.
In some embodiments, the Social Value Orientation (SVO) test is utilized to evaluate the safety and/or efficacy of psilocybin. The SVO Slider Measure has 6 primary items with 9 secondary (and optional) items. All of the items have the same general form. Each item is a resource allocation choice over a well-defined continuum of joint payoffs.
In some embodiments, the Toronto Empathy Questionnaire (TEQ) is utilized to evaluate the safety and/or efficacy of psilocybin. The TEQ represents empathy as a primarily emotional process. […] The TEQ is a brief, reliable and valid instrument for the assessment of empathy. In some embodiments, after treating according to the methods of the disclosure, a subject's TEQ score increases by about 5%, about 10%, about 15%, about 20%, about 25%, about 30%, about 35%, about 40%, about 45%, about 50%, about 55%, about 60%, about 65%, about 70%, about 75%, about 80%, about 85%, about 90%, about 95%, or about 100%, about 110%, about 120%, about 130%, about 140%, about 150%, about 160%, about 170%, about 180%, about 190%, about 200%, about 210%, about 220%, about 230%, about 240%, about 250%, about 260%, about 270%, about 280%, about 290%, or about 300%, or more, compared to prior to treatment.
In some embodiments, the Scale of Social Responsibility (SSR) is utilized to evaluate the safety and/or efficacy of psilocybin. The SSR measures perceptions regarding the importance of ethics and social responsibility.
The Pictorial Empathy Test (PET), Reading the Mind in the Eyes Test (RMET), Scale of Social Responsibility (SSR), Social Value Orientation (SVO), and Toronto Empathy Questionnaire (TEQ) were performed. Table 28 summarizes the results of the mixed model for repeated measures (MMRM) analysis for each of the aforementioned social cognition panel scales measured on Day 7 and Day 84 after study drug administration.

Compound: CN(C)CCc1c[nH]c2cccc(OP(=O)(O)O)c12 [Psilocybin, psilocybin]
- PET change from baseline, LS mean difference Psilocybin 10 mg-Placebo (Day 7): −0.1
- PET change from baseline, LS mean difference Psilocybin 25mg-10mg (Day 7): 0.3
- PET change from baseline, LS mean difference Psilocybin 25 mg-Placebo (Day 7): 0.2
- RMET change from baseline, LS mean difference Psilocybin 10 mg-Placebo (Day 7): 0.1
- RMET change from baseline, LS mean difference Psilocybin 25mg-10mg (Day 7): 0.0
- RMET change from baseline, LS mean difference Psilocybin 25 mg-Placebo (Day 7): 0.2
- SSR compliance social rules change from baseline, LS mean difference Psilocybin 10 mg-Placebo (Day 7): 0.0
- SSR compliance social rules change from baseline, LS mean difference Psilocybin 25mg-10mg (Day 7): 0.1
- SSR compliance social rules change from baseline, LS mean difference Psilocybin 25 mg-Placebo (Day 7): 0.1
- SSR fulfilling expectations change from baseline, LS mean difference Psilocybin 10 mg-Placebo (Day 7): 0.1
- SSR fulfilling expectations change from baseline, LS mean difference Psilocybin 25mg-10mg (Day 7): 0.1
- SSR fulfilling expectations change from baseline, LS mean difference Psilocybin 25 mg-Placebo (Day 7): 0.2
- SSR global change from baseline, LS mean difference Psilocybin 10 mg-Placebo (Day 7): 1.2
- SSR global change from baseline, LS mean difference Psilocybin 25mg-10mg (Day 7): 1.6
- SSR global change from baseline, LS mean difference Psilocybin 25 mg-Placebo (Day 7): 2.8
- SVO angle change from baseline, LS mean difference Psilocybin 10 mg-Placebo (Day 7): 3.4
- SVO angle change from baseline, LS mean difference Psilocybin 25mg-10mg (Day 7): −1.3
- SVO angle change from baseline, LS mean difference Psilocybin 25 mg-Placebo (Day 7): 2.1
- SVO type change from baseline, LS mean difference Psilocybin 10 mg-Placebo (Day 7): 0.1
- SVO type change from baseline, LS mean difference Psilocybin 25mg-10mg (Day 7): −0.0
- SVO type change from baseline, LS mean difference Psilocybin 25 mg-Placebo (Day 7): 0.1
- TEQ change from baseline, LS mean difference Psilocybin 10 mg-Placebo (Day 7): 0.1
- TEQ change from baseline, LS mean difference Psilocybin 25mg-10mg (Day 7): 0.1
- TEQ change from baseline, LS mean difference Psilocybin 25 mg-Placebo (Day 7): 0.2
- PET change from baseline, LS mean difference Psilocybin 10 mg-Placebo (Day 84): −0.1
- PET change from baseline, LS mean difference Psilocybin 25mg-10mg (Day 84): 0.3
- PET change from baseline, LS mean difference Psilocybin 25 mg-Placebo (Day 84): 0.1
- RMET change from baseline, LS mean difference Psilocybin 10 mg-Placebo (Day 84): 0.2
- RMET change from baseline, LS mean difference Psilocybin 25mg-10mg (Day 84): 0.3
- RMET change from baseline, LS mean difference Psilocybin 25 mg-Placebo (Day 84): 0.5
- SSR compliance social rules change from baseline, LS mean difference Psilocybin 10 mg-Placebo (Day 84): −0.0
- SSR compliance social rules change from baseline, LS mean difference Psilocybin 25mg-10mg (Day 84): 0.1
- SSR compliance social rules change from baseline, LS mean difference Psilocybin 25 mg-Placebo (Day 84): 0.1
- SSR fulfilling expectations change from baseline, LS mean difference Psilocybin 10 mg-Placebo (Day 84): −0.1
- SSR fulfilling expectations change from baseline, LS mean difference Psilocybin 25mg-10mg (Day 84): 0.2
- SSR fulfilling expectations change from baseline, LS mean difference Psilocybin 25 mg-Placebo (Day 84): 0.0
- SSR global change from baseline, LS mean difference Psilocybin 10 mg-Placebo (Day 84): 0.3
- SSR global change from baseline, LS mean difference Psilocybin 25mg-10mg (Day 84): 1.8
- SSR global change from baseline, LS mean difference Psilocybin 25 mg-Placebo (Day 84): 2.2
- SVO angle change from baseline, LS mean difference Psilocybin 10 mg-Placebo (Day 84): 3.4
- SVO angle change from baseline, LS mean difference Psilocybin 25mg-10mg (Day 84): −1.0
- SVO angle change from baseline, LS mean difference Psilocybin 25 mg-Placebo (Day 84): 2.4
- SVO type change from baseline, LS mean difference Psilocybin 10 mg-Placebo (Day 84): 0.1
- SVO type change from baseline, LS mean difference Psilocybin 25mg-10mg (Day 84): −0.0
- SVO type change from baseline, LS mean difference Psilocybin 25 mg-Placebo (Day 84): 0.1
- TEQ change from baseline, LS mean difference Psilocybin 10 mg-Placebo (Day 84): 0.1
- TEQ change from baseline, LS mean difference Psilocybin 25mg-10mg (Day 84): 0.0
- TEQ change from baseline, LS mean difference Psilocybin 25 mg-Placebo (Day 84): 0.1
- SSR fulfilling expectations change from baseline, LS mean (Psilocybin 10 mg, Day 7): −0.1
- SSR fulfilling expectations change from baseline, LS mean (Psilocybin 10 mg, Day 84): −0.2
- TEQ change from baseline, LS mean (Psilocybin 10 mg, Day 84): −0.1
- SSR fulfilling expectations change from baseline, LS mean (Psilocybin 25 mg, Day 7): −0.0
- SSR fulfilling expectations change from baseline, LS mean (Psilocybin 25 mg, Day 84): −0.0
- TEQ change from baseline, LS mean (Psilocybin 25 mg, Day 84): −0.0
